Patent US6479231B1, “Fluorescence-based assay for the interaction of small molecules with the human renal organic anion transporter 1 (hOAT1)” (Gilead Sciences, Inc., priority 1999, dated 2002)
Like-named read-outs stand apart in the source and are kept apart here. Each block holds one compound with its values, some of them ahead of it.

Key:
hOAT1 [1] = target: T1, hOAT1 (Homo sapiens, UniProt Q4U2R8); experiment: Fluorescent transport assay: accumulation of fluorescent organic anions in CHO^hOAT vs CHO^pIRES cells; conditions: 10 μM fluorescent anion, 10 min, room temperature
T1 sequence (Q4U2R8 1-550 isoform Q4U2R8-2): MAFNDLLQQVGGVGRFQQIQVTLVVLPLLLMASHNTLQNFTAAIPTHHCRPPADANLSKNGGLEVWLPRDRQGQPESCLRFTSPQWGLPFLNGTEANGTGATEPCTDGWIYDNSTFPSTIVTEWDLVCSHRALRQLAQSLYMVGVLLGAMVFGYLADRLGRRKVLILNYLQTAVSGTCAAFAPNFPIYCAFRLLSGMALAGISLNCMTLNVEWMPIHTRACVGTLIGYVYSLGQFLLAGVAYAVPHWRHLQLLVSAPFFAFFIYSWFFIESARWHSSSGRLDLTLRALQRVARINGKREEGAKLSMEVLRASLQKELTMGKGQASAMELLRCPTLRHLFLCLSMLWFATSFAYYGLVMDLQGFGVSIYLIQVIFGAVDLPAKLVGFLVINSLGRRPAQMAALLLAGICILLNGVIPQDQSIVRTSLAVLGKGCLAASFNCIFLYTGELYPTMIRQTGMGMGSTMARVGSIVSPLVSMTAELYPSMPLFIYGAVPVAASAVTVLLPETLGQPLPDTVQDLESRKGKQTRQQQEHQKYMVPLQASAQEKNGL

hOAT1 [2] = target: T1, hOAT1; conditions: for Vmax of hOAT1-specific transport / Km: room temperature; for Km: read-out: Km of hOAT1-specific transport
Description: First, a time-course of hOAT1-specific uptake of 6-CFL at various concentrations ranging from 0.31 to 20 μM was determined.
Kinetics of 6-CFL transport mediated by hOAT1. (a) Time course of hOAT1-specific uptake of 6-CFL. CHO^pIRES and CHO^hOAT cells in 96-well plates were incubated at room temperature with 6-CFL at concentrations ranging from 0.31 to 20 μM. At specific time points, the uptake was terminated by washing the cells with ice-cold PBS. After cell lysis, the intracellular fluorescence was determined and the net hOAT1-specific uptake was calculated after the subtraction of non-specific background uptake into CHO^pIRES cells determined under the identical conditions. […] (b) Saturation curve of the hOAT1-specific uptake of 6-CFL at 4-min time points. Km and Vmax values were estimated from the double-reciprocal plot (inset).

hOAT1 [3] = target: T1, hOAT1; experiment: Fluorescence-based inhibition assay: inhibition of 6-CFL uptake into CHO^hOAT cells; type: cell-based; parameters: expressed in transfected cells; vector pIRESneo
hOAT1 [4] = target: T1, hOAT1; experiment: Transport kinetics with the radioactive substrates in CHO^hOAT cells; type: cell-based; parameters: expressed in transfected cells; vector pIRESneo; conditions: radiolabeled substrates, 3 min at 37° C, mean ± standard error, three to five experiments
Description: The assays were carried out in 12-well plates with nearly confluent cells seeded 48 hours prior to each experiment. Immediately before the experiment, the cells were washed with PBS pre-warmed to 37° C. Pre-warmed Waymouth buffer ([…]) containing radiolabeled substrate at various concentrations was added to the cells and incubated for 3 min at 37° C. At the end of incubation, the cells were washed 3-times with ice-cold PBS (2 ml/well) and lysed directly on the plate in the presence of 0.4% Triton X-100 (0.5 ml/well) for at least 20 min. Subsequently, the wells were washed with an additional 0.5 ml of the detergent, the lysate and wash were combined, and radioactivity in each sample was determined after adding 6 ml of scintillation fluid (Beckman Instruments, Fullerton, Calif.). Km values were estimated by the linear regression from double reciprocal plots using Enzyme Kinetics software (ChemSW, Fairfield, Calif.).

[5] = 4-min endpoints, double reciprocal plot

inhibition of 6-CFL transport (in words) (hOAT1 [3]): inhibited the transport of 6-CFL
SMILES: CC1=C(C(=O)O)N2C(=O)[C@@H](NC(=O)[C@H](N)C3=CCC=CC3)[C@H]2SC1 [Cephradine]

inhibition of 6-CFL transport (in words) (hOAT1 [3]): inhibited the transport of 6-CFL
SMILES: Nc1ccn(C[C@@H](CO)OCP(=O)(O)O)c(=O)n1 [Cidofovir, (S)-1-(3-hydroxy-2-phosphonylmethoxypropyl)cytosine]

inhibition of 6-CFL transport (in words) (hOAT1 [3]): inhibited the transport of 6-CFL
Km (hOAT1 [4]): 309 ± 106 µM
SMILES: Nc1ccn(C[C@H]2COP(=O)(O)CO2)c(=O)n1 [Cyclic prodrug of cidofovir, [((S)-1-2-hydroxy-2-oxo-1,4,2-dioxaphosphorinan-5-yl)methyl]cytosine]

More lines, now with the values behind:

SMILES: O=C(O)c1ccc2c(c1)C(=O)OC21c2ccc(O)cc2Oc2cc(O)ccc21 [5-CFL, 5-carboxyfluorescein]
hOAT1-mediated transport / accumulation (in words) (hOAT1 [1]; CHO^hOAT and CHO^pIRES cells): accumulated at very low levels both in CHO^hOAT and CHO^pIRES cells

SMILES: O=C(O)c1ccc2c(c1)C1(OC2=O)c2ccc(O)cc2Oc2cc(O)ccc21 [6-CFL, 6-carboxyfluorescein]
transport efficiency (Vmax/Km ratio) (hOAT1 [2]): comparable to that of PAH
Vmax of hOAT1-specific transport (hOAT1 [2]; 2-min endpoints): 19.7 pmol/10^6 cells·min
Vmax of hOAT1-specific transport (hOAT1 [2]; [5]): 17.8 pmol/10^6 cells·min
Km (hOAT1 [2]; 2-min endpoints): 3.95 µM
Km (hOAT1 [2]; [5]): 3.93 µM
accumulation in CHO^hOAT cells relative to control CHO^pIRES cells (hOAT1 [1]): approximately 15 fold

SMILES: Nc1ncnc2c1ncn2CCOCP(=O)(O)O [Adefovir, 9-(2-phosphonylmethoxyethyl)adenine]
inhibition of 6-CFL transport (in words) (hOAT1 [3]): inhibited the transport of 6-CFL
Km (hOAT1 [4]): 23.8 ± 4.2 µM

SMILES: CC(C(=O)O)c1cccc(C(=O)c2ccccc2)c1 (centres unmarked) [Ketoprofen]
inhibition of 6-CFL transport (in words) (hOAT1 [3]): inhibited the transport of 6-CFL
